This is an account of results in publication PMC5663708, “Novel Benzylidene Thiazolidinedione Derivatives as Partial PPARγ Agonists and their Antidiabetic Effects on Type 2 Diabetes” (Scientific Reports, 2017).

Read-outs that look alike come from different tables or passages of the source. Some results are limits rather than exact numbers.

In data set [1] the test system is NIH/3T3 mouse embryonic fibroblast cells. The data set is described as follows: XTT cytotoxicity assay on NIH/3T3 cells. The conditions noted are these: for cell viability compared with Rosiglitazone: especially at 316 and 1000 μM. As for the experimental part:
XTT is reduced to soluble formazan by this enzyme and formazan is quantified and directly proportional to the number of viable cells. […] NIH/3T3 cells were seeded at 1 × 10^4 cells into each well of 96-well plates. […] The XTT assay (Xenometrix, Allschwil, Switzerland) was performed according to the manufacturer’s instructions, after 24 h incubation with the compounds. The absorbance was determined after 2 h incubation at 480 nm with a reference wavelength of 680 nm using a microplate reader (BioTek, USA). […] The stock solutions of the compounds were prepared in DMSO and further dilutions were made with fresh culture medium. The final DMSO concentration was under 0.1%. Rosiglitazone and Pioglitazone were used as positive controls. All data were obtained from 3 independent experiments in quadruplicates.
A general note: Formazan colour is commonly taken as a measure of viable cells.

Data set [2] can be described thus: Human liver microsomal stability. The class given is in vitro ADME. The conditions noted are these: 37.5 °C, LM conc 0.4 mg/mL; for half-life: read-out: T1/2,int. As for the experimental part: The oral bioavailability of compounds in terms of Caco-2 and MDCK-II permeability and the P-glycoprotein (P-gp) efflux ratio were assessed. The in vitro intrinsic half-life (T1/2,int) and the apparent intrinsic clearance (CLint,app) of compounds were also measured after incubation with human liver microsomes at 37.5 °C[65]. […] Quantification was done by LC-MS/MS. P-gp substrate activity was assessed by the efflux ratio (the ratio of Papp in the B-to-A direction over that in the A-to-B direction). […] P-gp is an ATP-dependent transporter on the apical plasma membrane of enterocytes that functions to limit the entry of drugs into the cell.
Highly cleared compounds in vitro are likely to be rapidly cleared in vivo resulting in a short duration of action.
Background: Microsomes from liver hold many membrane-bound enzymes, among them those of drug oxidation.

Another data set addresses T1, human PPARγ (hPPARγ) (Homo sapiens, UniProt P37231).
T1 construct: expressed in transfected cells; host or cells: HepG2 (human hepatoblastoma), transient calcium phosphate transfection
T1 sequence (P37231 238-503 limits assumed): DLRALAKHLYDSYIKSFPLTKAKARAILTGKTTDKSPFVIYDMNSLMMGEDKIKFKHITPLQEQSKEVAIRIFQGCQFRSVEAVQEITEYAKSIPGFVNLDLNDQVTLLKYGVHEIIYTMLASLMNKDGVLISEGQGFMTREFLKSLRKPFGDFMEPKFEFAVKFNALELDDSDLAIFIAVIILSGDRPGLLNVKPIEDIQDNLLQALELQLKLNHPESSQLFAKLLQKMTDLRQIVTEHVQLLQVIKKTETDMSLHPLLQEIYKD
The data set is described as follows: GAL-4 PPAR chimeric receptor transactivation assay in transiently transfected HepG2 cells. The class given is cell-based. The conditions noted are these: for EC50: Gal4-hPPARγ-LBD, HepG2 cells, concentration-response curve; for Emax: maximum induction of Rosiglitazone defined as 100%; for agonist activity on hPPARα, hPPARγ, hPPARβ/δ subtypes: tested at 5 μM and 25 μM, compared with reference agonists.

In a further data set the target is T2, PPARγ (Homo sapiens, UniProt P37231).
T2 sequence (P37231 1-505): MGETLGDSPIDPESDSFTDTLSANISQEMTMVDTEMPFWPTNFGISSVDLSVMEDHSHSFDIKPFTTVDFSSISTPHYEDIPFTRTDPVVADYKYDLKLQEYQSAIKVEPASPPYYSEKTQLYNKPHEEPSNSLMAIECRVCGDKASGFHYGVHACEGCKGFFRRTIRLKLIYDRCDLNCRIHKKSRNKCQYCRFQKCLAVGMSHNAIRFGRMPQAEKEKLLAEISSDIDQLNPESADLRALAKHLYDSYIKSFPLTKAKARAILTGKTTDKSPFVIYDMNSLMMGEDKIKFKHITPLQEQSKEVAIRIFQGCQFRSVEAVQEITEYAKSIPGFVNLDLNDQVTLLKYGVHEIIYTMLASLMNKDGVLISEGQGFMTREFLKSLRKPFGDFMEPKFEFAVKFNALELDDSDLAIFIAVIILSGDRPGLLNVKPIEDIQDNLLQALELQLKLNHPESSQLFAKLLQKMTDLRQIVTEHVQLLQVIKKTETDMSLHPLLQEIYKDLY
As to the kind of experiment: SPR-based Biacore binding assay on immobilized PPARγ. As to conditions: injected 0.5 to 10 µM. The procedure:
[…]. SPR analyses were carried out on a BIACORE 3000 instrument (GE-Healthcare). A PPARγ, surface was generated using a research-grade CM5 sensor chips (GE Healthcare). The protein (100 µg/ml in 10 mM CH3COONa, pH 5.0) was immobilized using a standard amine-coupling protocol, to obtain densities of 4 kRU. Testing compounds were dissolved in 100% DMSO to obtain 10 mM solutions, and then diluted in PBS containing variable amounts of DMSO, achieving a final DMSO concentration of 0.1%. For each molecule a five-point concentration series (0.5 µM, 1 µM, 2,5 µM, 5 µM and 10 µM) was set up. SPR experiments and data elaboration were carried out as reported elsewhere.

Take `CCN(CC)C(=O)CN1C(=O)S/C(=C\c2ccccc2)C1=O` [1i]: the IC50 – broadly, the midpoint of a concentration-inhibition curve – in data set [1] (Mus musculus, NIH3T3, 24 h) was > 1000 µM. Moreover, in data set [1] (NIH/3T3 cells), the “cell viability compared with Rosiglitazone” value was “significantly higher viability than Rosiglitazone”. Besides, the half-life in data set [2] (human liver microsomes) was 92.5 min. At human PPARγ (hPPARγ), the concentration giving a half-maximal response (EC50) (usually the concentration at which the effect is half-maximal) came out at 9.6 ± 0.8 µM and the “agonist activity on hPPARα, hPPARγ, hPPARβ/δ subtypes” value (“agonist activity … hPPARβ/δ subtypes” for short) was “weak to moderate selective activity towards PPARγ”. Also, the Emax (in general, the size of the effect at its maximum, as opposed to the concentration needed) on human PPARγ (hPPARγ) (HepG2, read-out: Emax) was found to be 23 ± 5%. On PPARγ, the Kd (in general, the concentration at which binding is half-saturated) was determined as 35.7 ± 2.6 µM.

For the compound `CCCCNC(=O)CN1C(=O)S/C(=C\c2ccccc2)C1=O` [1a], in data set [1] (NIH/3T3 cells, XTT, 24 h incubation), the IC50 is > 1000 µM. For the same compound, in data set [2] (human liver microsomes), the “CLint,app” value was determined as 169.81 µL/min/mg and the “T1/2,int” value was 10.20 min. Further, at human PPARγ (hPPARγ), a half-maximal effect (EC50) was put at 7 ± 1.3 µM; the Emax turned out to be 5.3 ± 0.3%; the “agonist activity … hPPARβ/δ subtypes” value is “weak to moderate selective activity towards PPARγ”. On PPARγ, this compound yielded a Kd of 38.3 ± 1.8 µM.

Consider `CCCCNC(=O)CN1C(=O)S/C(=C\c2ccc(Cl)cc2)C1=O` [3a], for which, in data set [1] (Mus musculus, NIH3T3, 24 h), the IC50 was 966 ± 10 µM. Further, the “cell viability compared with Rosiglitazone” value in data set [1] (NIH/3T3 cells) is “significantly higher viability than Rosiglitazone”. In addition, in data set [2] (human liver microsomes), the half-life came to 53.3 min. Moreover, the microsomal CLint in data set [2] (human, liver microsomes, read-out: CLint,app) came to 32.5 µL/min/mg. Besides, on human PPARγ (hPPARγ), the EC50 was found to be 5.9 ± 0.6 µM and the “agonist activity … hPPARβ/δ subtypes” value was “selective activity towards PPARγ”. Moreover, the maximum response (Emax) on human PPARγ (hPPARγ) (HepG2, read-out: Emax) was 31.6 ± 1%. Binding on PPARγ was characterised by a dissociation constant (Kd) of 32 ± 1.5 µM.
